What is called pEC50 is the EC50 on a negative log10 scale, so that one unit is a factor of ten. Low values mean a large EC50, high ones a small EC50.

The results in this text go back to patent US12037333B2, “Pyridopyrazine and pyridotriazine inhibitors of influenza virus replication” (priority 2018, dated 2024).

Molecules are shown by their SMILES. pEC50: −log10 of the molar value.

For this test, the system named is Influenza type A (strain A/PR/8/34, ATCC VR-95). Nature of the test: Influenza antiviral assay: inhibition of virus-induced cytopathic effects (CPE) in MDCK cells, XTT dye reduction. As to conditions: Influenza A virus, H1N1 / PR/8, MDCK, 96 h, strain A/PR/8/34, MDCK cells, CPE inhibition at 4 days. Format: cell-based. (In general: Damage to the host cells serves as the signal in cytopathic effect assays.)
The compound `O=C1c2c(O)c(=O)ccn2N(C23c4cccc(F)c4CC2Cc2c(F)cccc23)CN1CC1CCOCC1` (centres unmarked) [Compound A81] showed a pEC50 of 6.60 to 6.90.
Next, `CN1CN(C23c4ccccc4CC2Cc2c3ccc(F)c2F)n2ccc(=O)c(O)c2C1=O` (centres unmarked) [Compound A6, 1-(1,2-Difluoro-9a,10-dihydro-9H-indeno[1,2-a]inden-4b-yl)-5-hydroxy-3-methyl-2,3-dihydro-1H-pyrido[2,1-f][1,2,4]triazine-4,6-dione]: over 6.90; `COCCN1CN(C23c4ccccc4CC2Cc2c(Cl)cccc23)n2ccc(=O)c(O)c2C1=O` (centres unmarked) [Compound A101]: 6.60 to 6.90; `CC(C)CN1CN(C23c4cccc(F)c4CC2Cc2c(F)cccc23)n2ccc(=O)c(O)c2C1=O` (centres unmarked) [Compound A156]: 6.43 to 6.60.
On to `CCN1CN(C23c4ccccc4CC2(C)Cc2c3ccc(F)c2F)n2ccc(=O)c(O)c2C1=O` (centres unmarked) [Compound A164], for which the pEC50 is over 6.90.
Next, `O=C1c2c(O)c(=O)ccn2N(C23c4ccccc4CC2Cc2c3ccc(F)c2F)CN1Cc1ccc(F)cc1` (centres unmarked) [Compound A17, 1-(1,2-Difluoro-9a,10-dihydro-9H-indeno[1,2-a]inden-4b-yl)-3-(4-fluoro-benzyl)-5-hydroxy-2,3-dihydro-1H-pyrido[2,1-f][1,2,4]triazine-4,6-dione]: 6.60 to 6.90; `CC1N(CC(F)F)C(=O)c2c(O)c(=O)ccn2N1C12c3ccccc3CC1Cc1c(F)cccc12` (centres unmarked) [Compound A139]: 6.60 to 6.90; `CC(C)CN1CN(C23c4ccccc4CC2Cc2c3ccc(F)c2F)n2ccc(=O)c(O)c2C1=O` (centres unmarked) [Compound A149]: over 6.90.
Then `CCN1CN(C23c4cccc(F)c4CC2Cc2c(F)cccc23)n2ccc(=O)c(O)c2C1=O` (centres unmarked) [Compound A34], with over 6.90.
With `CCCN1CN(C23c4cccc(F)c4CC2Cc2c(F)cccc23)n2ccc(=O)c(O)c2C1=O` (centres unmarked) [Compound A153], the pEC50 is over 6.90.
Then `O=C1c2c(O)c(=O)ccn2N(C23c4ccccc4CC2Cc2ccccc23)CN1CC1CC1` (centres unmarked) [Compound A2, 3-Cyclopropylmethyl-1-(9a,10-dihydro-9H-indeno[1,2-a]inden-4b-yl)-5-hydroxy-2,3-dihydro-1H-pyrido[2,1-f][1,2,4]triazine-4,6-dione], with 6.60 to 6.90; and `COCCN1C(=O)c2c(O)c(=O)ccn2N(C23c4ccccc4CC2Cc2c3ccc(F)c2F)C1C` (centres unmarked) [Compound A113], with 6.60 to 6.90.
Then `CCN1C(=O)c2c(O)c(=O)ccn2N(C23c4ccccc4CC2Cc2c(Cl)cccc23)C1C` (centres unmarked) [Compound A95], with 6.60 to 6.90.
Next, `CCN1CN(C23c4ccccc4CC2Cc2c3ccc(Cl)c2Cl)n2ccc(=O)c(O)c2C1=O` (centres unmarked) [Compound A161]: over 6.90; `CC1N(C)C(=O)c2c(O)c(=O)ccn2N1C12c3cccc(F)c3CC1Cc1c(F)cccc12` (centres unmarked) [Compound A73]: over 6.90; `Cc1ccc2c(c1F)CC1Cc3ccccc3C21N1CN(C)C(=O)c2c(O)c(=O)ccn21` (centres unmarked) [Compound A85]: 6.60 to 6.90.
Consider `O=C1c2c(O)c(=O)ccn2N(C23c4ccccc4CC2Cc2c3ccc(F)c2F)CN1CCCF` (centres unmarked) [Compound A80], for which the pEC50 is over 6.90.
Next, `O=C1c2c(O)c(=O)ccn2N(C23c4ccccc4CC2Cc2c3ccc(F)c2F)CN1CC1CCCCC1` (centres unmarked) [Compound A99]: under 6.30; `COCCN1C(=O)c2c(O)c(=O)ccn2N(C23c4ccccc4CC2Cc2c(Cl)cccc23)C1C` (centres unmarked) [Compound A125]: 6.43 to 6.60.
Then `CCCN1CN(C23c4ccccc4CC2Cc2c3ccc(F)c2F)n2ccc(=O)c(O)c2C1=O` (centres unmarked) [Compound A148], with over 6.90; and `O=C1c2c(O)c(=O)ccn2N(C23c4ccccc4CC2Cc2c(Cl)cccc23)CN1C1CC1` (centres unmarked) [Compound A93], with 6.60 to 6.90; and `CCN1CN(C23c4ccccc4CC2Cc2c3ccc(F)c2C)n2ccc(=O)c(O)c2C1=O` (centres unmarked) [Compound A77], with over 6.90.
Next, `O=C1c2c(O)c(=O)ccn2N(C23c4ccccc4CC2Cc2c(F)cccc23)CN1C1CC1` (centres unmarked) [Compound A65]: 6.60 to 6.90.
